Assay results taken from ChEMBL document CHEMBL3886147 (2015).
Where “and” joins values, the source holds several entries; their conditions need not be identical. Equal entries are not always repeated.

Key:
[1] = biological target: Beta-lactamase (Escherichia coli K-12, UniProt P00811); experiment: (§1) Assays are performed with beta -lactamases expressed in the pET system (Novagen, San Diego, Calif.) without signal peptides. They contain an N-terminal hexa-Histidine tag that is used for purification on Ni-NTA (Qiagen, Hilden, Germany). The compounds are prepared as 50 mM stocks in DMSO and diluted into buffer P1 (50 mM phosphate, pH 7) to a final concentration of 10% DMSO. All further dilutions are done in P2 (P1 with 10% DMSO). Enzyme and compound dilutions are pre-incubated for 10 min at 37 C. and the reaction is started with the addition of pre-warmed (37 C.) nitrocefin at a final concentration of […]. The change in absorption at 490 nm is followed at 37 C. for 10 min with 30 s intervals.
Beta-lactamase, sequence (P00811 whole entry): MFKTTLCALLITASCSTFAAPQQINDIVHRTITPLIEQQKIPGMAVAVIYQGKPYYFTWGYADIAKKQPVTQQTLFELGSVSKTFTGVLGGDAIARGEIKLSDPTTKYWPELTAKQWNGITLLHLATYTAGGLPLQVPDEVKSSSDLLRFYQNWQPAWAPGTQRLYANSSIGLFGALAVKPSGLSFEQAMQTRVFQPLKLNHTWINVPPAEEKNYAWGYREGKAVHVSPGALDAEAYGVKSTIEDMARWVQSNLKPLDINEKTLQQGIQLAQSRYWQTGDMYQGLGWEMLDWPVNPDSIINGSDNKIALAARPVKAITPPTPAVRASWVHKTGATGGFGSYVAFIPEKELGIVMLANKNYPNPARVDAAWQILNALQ

[2] = biological target: Beta-lactamase TEM (Bacteria, UniProt P62593); experiment: as §1
Beta-lactamase TEM, sequence (P62593 whole entry): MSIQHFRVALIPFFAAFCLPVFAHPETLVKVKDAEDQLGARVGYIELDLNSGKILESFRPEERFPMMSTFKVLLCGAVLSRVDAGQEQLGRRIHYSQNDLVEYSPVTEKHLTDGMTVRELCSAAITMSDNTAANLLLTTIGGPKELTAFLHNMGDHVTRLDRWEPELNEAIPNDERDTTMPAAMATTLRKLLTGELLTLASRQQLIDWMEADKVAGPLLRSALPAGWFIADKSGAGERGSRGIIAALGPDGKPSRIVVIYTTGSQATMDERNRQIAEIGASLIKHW

Row | SMILES | IC50 [1] | IC50 [2]
1 | COC(=O)C1/C(=C2/CC(CI)OC2=O)O[C@@H]2CC(=O)N12 (stereo not given in full) | 126 nM | 3.5 nM
2 | CC1CC(=C2O[C@@H]3CC(=O)N3C2C(=O)O)C(=O)O1 (single isomer, unassigned) | 6080 nM | –
3 | [N-]=[N+]=NCC1C/C(=C2\O[C@@H]3CC(=O)N3C2C(=O)OCc2ccccc2)C(=O)O1 (stereo not given in full) | 305 nM | –
4 | CC1C/C(=C2\O[C@@H]3CC(=O)N3C2C(=O)OCc2ccccc2)C(=O)O1 (single isomer, unassigned) | 1070 nM and 301 nM | –
